Measured values: patent US20180362456A1, “NEW COMPOUNDS WITH ANTIOXIDANT AND ANTIAGING ACTIVITY” (EMS S/A, priority 2015, published 2018)

Columns and labels:
free radicals [1] = assay: Antioxidant activity, DCA fluorimetric probe, UVA treatments; type: cell-based
Method: (§1) The antioxidant power of compounds described in examples 1 and 2 was tested in two different tests, one for the scavenger activity and one for the antioxidant activity. The method is based on the fluorimetric probe 2′,7′-dichlorofluorescein diacetate (DCA) that becomes fluorescent only when it is oxidized by free radicals.

Balb3T3 [2] = assay: Neutral Red Uptake cytotoxicity test; type: cell-based
Method: (§2) The citotoxicity of compounds described in examples 1 and 2 was tested with the test Neutral Red Uptake to determine the IC50 values. To better define the cytotoxic potential also the lactate dehydrogenase (LDH) release was tested to verify the action on cell membrane permeability. Test were performed according to DB-ALM Protocol n L39Balb3T3 Red Uptake cytotoxicity and ISO 10993-5:2009.

[3] = Neutral Red Uptake cytotoxicity test; type: cell-based; settings: mouse, Balb3T3 cells
Method: as §2

Balb3T3 [4] = assay: Lactate dehydrogenase (LDH) release, cell membrane permeability; type: cell-based; set-up: activity on cell membrane: dose or concentration left out as unconfirmed; settings: for LDH release, % of total enzyme contained in the cells: 14 hours exposition
Method: as §2

free radicals [5] = assay: Scavenger activity, DCA fluorimetric probe, UVA treatments; type: cell-based
Method: as §1

[6] = In vitro skin permeation, static Franz diffusion cells (OECD 428); type: in vitro ADME; settings: 1% solution, 5 mg/cm2 on human skin, 24 hours, unocclusive
Source text: The in vitro skin permeation experiments were developed and validated according to the Organization for Economic Cooperation and Development adopted guideline 428 (OECD guideline for the testing of chemicals. Skin absorption: in vitro method. Guideline 428 (Paris, April 2004, updated January 2011)). Briefly, static Franz diffusion cells were set up with human skin samples according with OECD and SCSS guidelines. A simple formulation containing 1% of compound of example 1 in solution was applied topically on human skin samples (5 mg/cm2) for 24 hours in an unocclusive conditions. At the end of the exposure time the Franz diffusion cells were dismantled and the distribution of the compound was measured on the skin surface, in the stratum corneum and in the rector fluid. An extraction method was developed and the day after the extraction process, all the samples were filtered through 0.22 μm membrane filter into HPLC vials. The samples of compounds of example 1, together with known concentration standards were assayed by HPLC-UV (Waters, USA). The average amount measured in the dermis was 2% of applied dose and in the receptor fluid was 3% of the applied dose. Therefore, the calculated average dermal absorption for compound 1 was 5%.

Structure (SMILES) | inhibition at 25 µM (free radicals [1]; 0.025 mM, read-out: inhibition of free radical formation (antioxidant activity)) [%] | overall biocompatibility (Balb3T3 [2]) | IC50 [3] [µM] | activity on cell membrane (Balb3T3 [4]) | LDH release, % of total enzyme contained in the cells (Balb3T3 [4]; 1 mM) [%] | reduction of free radical formation (scavenger action) (free radicals [5]; after first UVA treatment) [%] | inhibition of free radical formation (antioxidant efficacy) (free radicals [1]; 0.1 mM effective dose, after 5 treatments UVA) | average amount measured in the dermis [6] | average amount measured in the receptor fluid [6] | calculated average dermal absorption [6] [%] | LDH release, % of total enzyme contained in the cells (Balb3T3 [4]; 0.2 mM) [%] | LDH release, % of total enzyme contained in the cells (Balb3T3 [4]; 0.5 mM) [%] | reduction of the formation of free radicals (scavenger activity), on average (free radicals [5]; 0.004 mM, after 5 treatments with UVA) [%]
C=CCSCC(NC(=O)C1CCC(=O)N1)C(=O)OC [Example 2, L-Pyroglutamyl-(R)-3-Allylsulfanyl-2-amino-propionic Acid Methyl Ester] | 25.6 | very biocompatible | > 3000 | some slight activity on cell membrane | 12.3 | 23.5 | – | – | – | – | – | – | –
C=CCSCC(N)C(=O)Oc1ccc(/C=C/c2cc(OC(=O)C(N)CSCC=C)cc(OC(=O)C(N)CSCC=C)c2)cc1.Cl.Cl.Cl (stereo not drawn) [Example 1, (E)-1,1′-((5-(4-((3-(allylthio)-2-ammoniopropanoyl)oxy)styryl)-1,3-phenylene)bis(oxy))bis(3-(allylthio)-1-oxopropan-2-aminium) Chloride] | – | – | 113 | not highlighted a specific activity on cell membrane | – | – | more than 50% | 2 % of applied dose | 3 % of the applied dose | 5 | 13.0 | 13.2 | 41
